Measured values: patent US11155517B2, “4-substituted phenylamine derivatives and their use to protect crops by fighting undesired phytopathogenic micoorganisms” (PI INDUSTRIES LTD., priority 2016, dated 2021)

What was measured:
Format in all cases: cell-based
Rhizoctonia solani = Rhizoctonia solani (rice sheath blight/potato black scurf) in vitro test, radial growth on Potato Dextrose Agar; conditions: 168 h, 300 ppm, seven days, 25° C., read-out: % control compared to the untreated check (radial growth)
Colletotrichum capsici = Colletotrichum capsici (anthracnose) in vitro test, radial growth on Potato Dextrose Agar; conditions: Colletotrichum truncatum, 168 h; 300 ppm; seven days, 25° C.; read-out: % control compared to the untreated check (radial growth)
Pyricularia oryzae = assay: microbe, parasite or virus in culture; conditions: 168 h, read-out: % control compared to the untreated check (radial growth)
Alternaria solani = Alternaria solani (early blight of tomato/potato) in vitro test, radial growth on Potato Dextrose Agar; conditions: 168 h, 300 ppm, seven days, 25° C., read-out: % control compared to the untreated check (radial growth)
Septoria lycopersici = Septoria lycopersici (leaf spot of tomato) in vitro test, radial growth on Potato Dextrose Agar; conditions: 168 h, seven days, 25° C., read-out: % control compared to the untreated check (radial growth)
Botrytis cinerea = Botrytis cinerea (gray mold) in vitro test, radial growth on Potato Dextrose Agar; conditions: 168 h, 300 ppm, seven days, 22° C., read-out: % (control) compared to the untreated check (radial growth)

Compound	inhibition of growth at 300 ppm (Rhizoctonia solani) [%]	inhibition of growth at 300 ppm (Colletotrichum capsici) [%]	inhibition of growth at 300 ppm (Pyricularia oryzae) [%]	inhibition of growth at 300 ppm (Alternaria solani) [%]	inhibition of growth at 300 ppm (Septoria lycopersici) [%]	inhibition of growth at 300 ppm (Botrytis cinerea) [%]
CCN(C)C=Nc1cc(C)c(Cc2ccc(Cl)c(Cl)c2)cc1Cl [Compound 20, N′-(2-chloro-4-(3,4-dichlorobenzyl)-5-methylphenyl)-N-ethyl-N-methylformimidamide]	> 80	> 80	> 75	> 75	> 70	
Cc1cc(N=CN2CCOCC2)c(C)cc1Cc1ccc(F)c(Cl)c1 [Compound 34, N-(4-(3-chloro-4-fluorobenzyl)-2,5-dimethylphenyl)-1-morpholinomethanimine]	> 80	> 80	> 75	> 75	> 70	
Cc1cc(N=CN2CCCCC2)c(C)cc1Cc1cccc(Br)c1F [Compound 37, N-(4-(3-bromo-2-fluorobenzyl)-2,5-dimethylphenyl)-1-(piperidin-1-yl)methanimine]	> 80	> 80	> 75	> 75	> 70	> 80
Cc1cc(N(C#N)C=N)c(C)cc1Cc1ccccc1F [Compound 64, N-cyano-N-(4-(2-fluorobenzyl)-2,5-dimethylphenyl)formimidamide]			> 75		> 70	
Cc1cc(N=CN2CCSCC2)c(C)cc1Cc1ccccc1Cl [Compound 86, N-(4-(2-chlorobenzyl)-2,5-dimethylphenyl)-1-thiomorpholinomethanimine]	> 80	> 80	> 75	> 75	> 70	> 80
CCN(C)C=Nc1cc(C)c(Cc2cc(C(F)(F)F)cc(C(F)(F)F)c2)cc1C [Compound 106, N′-(4-(3,5-bis(trifluoromethyl)benzyl)-2,5-dimethylphenyl)-N-ethyl-N-methylformimidamide]	> 80	> 80	> 75	> 75	> 70	> 80
CCN(C)C=Nc1cc(C)c(Cc2ccccc2OC(F)(F)F)cc1C [Compound 116, N′-(2,5-dimethyl-4-(2-(trifluoromethoxy)benzyl)phenyl)-N-ethyl-N-methylformimidamide]	> 80	> 80	> 75	> 75	> 70	> 80
CCN(C)C=Nc1cc(C)c(Cc2cccc(OC(F)(F)F)c2)cc1Cl [Compound 124, N′-(2-chloro-5-methyl-4-(3-(trifluoromethoxy)benzyl)phenyl)-N-ethyl-N-methylformimidamide]	> 80	> 80	> 75	> 75		> 80
CCN(C)C=Nc1cc(C)c(Cc2cc(C)cc(C)c2)cc1Cl [Compound 130, N′-(2-chloro-4-(3,5-dimethylbenzyl)-5-methylphenyl)-N-ethyl-N-methylformimidamide]	> 80	> 80	> 75	> 75	> 70	> 80
CCN(C)C=Nc1cc(C)c(Cc2cccc(F)c2Cl)cc1C [Compound 131, N′-(4-(2-chloro-3-fluorobenzyl)-2,5-dimethylphenyl)-N-ethyl-N-methylformimidamide]	> 80	> 80	> 75	> 75	> 70	> 80
CCN(C)C=Nc1cc(C)c(Cc2cc(C(F)(F)F)cc(Cl)c2F)cc1C [Compound 134, N′-(4-(3-chloro-2-fluoro-5-(trifluoromethyl)benzyl)-2,5-dimethylphenyl)-N-ethyl-N-methylformimidamide]	> 80	> 80	> 75	> 75	> 70	> 80
CCN(C)C=Nc1cc(C)c(Cc2cc(C)cc(F)c2)cc1Cl [Compound 140, N′-(2-chloro-4-(3-fluoro-5-methylbenzyl)-5-methylphenyl)-N-ethyl-N-methylformimidamide]	> 80	> 80	> 75	> 75		> 80
CCN(C)C=Nc1ccc(Cc2ccccc2F)cc1 [Compound 163, N-ethyl-N′(4-(2-fluorobenzyl)phenyl)-N-methylformimidamide]	> 80	> 80	> 75	> 75	> 70	> 80
CCN(C)C=Nc1ccc(Cc2ccccc2Cl)cc1 [Compound 164, N′-(4-(2-chlorobenzyl)phenyl)-N-ethyl-N-methylformimidamide]	> 80	> 80	> 75	> 75	> 70	> 80
CCN(C)C=Nc1cc(C)c(Cc2cc(C(F)(F)F)ccc2Cl)cc1Cl [Compound 168, N′-(2-chloro-4-(2-chloro-5-(trifluoromethyl)benzyl)-5-methylphenyl)-N-ethyl-N-methylformimidamide]	> 80	> 80	> 75	> 75	> 70	> 80
CCN(C)C=Nc1cc(C)c(Cc2ccc(Cl)c(OC(F)(F)F)c2)cc1Cl [Compound 177, N′-(2-chloro-4-(4-chloro-3-(trifluoromethoxy)benzyl)-5-methylphenyl)-N-ethyl-N-methylformimidamide]	> 80	> 80	> 75	> 75	> 70	> 80
CCN(C)C=Nc1cc(C)c(Cc2c(Cl)cccc2Cl)cc1Cl [Compound 195, N′-(2-chloro-4-(2,6-dichlorobenzyl)-5-methylphenyl)-N-ethyl-N-methylformimidamide]		> 80	> 75	> 75	> 70	> 80
CCN(C)C=Nc1cc(C)c(Cc2cccnc2)cc1Cl [Compound 204, N′-(2-chloro-5-methyl-4-(pyridin-3-ylmethyl)phenyl)-N-ethyl-N-methylformimidamide]	> 80	> 80	> 75	> 75		> 80
CCN(C)C=Nc1cc(C)c(Cc2cccc(F)c2)cc1S(C)(=O)=O [Compound 216, N-ethyl-N′-(4-(3-fluorobenzyl)-5-methyl-2-(methylsulfonyl)phenyl)-N-methylformimidamide]	> 80		> 75	> 75	> 70	
CCN(C)C=Nc1cc(C(F)(F)F)c(Cc2ccccc2C)cc1F [Compound 228, N-ethyl-N′-(2-fluoro-4-(2-methylbenzyl)-5-(trifluoromethyl)phenyl)-N-methylformimidamide]	> 80		> 75	> 75	> 70	
CCN(C)C=Nc1cc(C(F)(F)F)c(Cc2cccc(Cl)c2)cc1F [Compound 229, N′-(4-(3-chlorobenzyl)-2-fluoro-5-(trifluoromethyl)phenyl)-N-ethyl-N-methylformimidamide]	> 80		> 75	> 75	> 70	
CCN(C)C=Nc1cc(F)c(Cc2cccc(Cl)c2)cc1F [Compound 243, N′-(4-(3-chlorobenzyl)-2,5-difluorophenyl)-N-ethyl-N-methylformimidamide]	> 80	> 80	> 75	> 75	> 70	
CCN(C)C=Nc1cc(F)c(Cc2cccc(C)c2)cc1F [Compound 244, N′-(2,5-difluoro-4-(3-methylbenzyl)phenyl)-N-ethyl-N-methylformimidamide]	> 80		> 75	> 75	> 70	> 80
CCN(C)C=Nc1cc(C#N)c(Cc2ccccc2C)cc1C [Compound 248, N′-(5-cyano-2-methyl-4-(2-methylbenzyl)phenyl)-N-ethyl-N-methylformimidamide]	> 80		> 75	> 75	> 70	> 80
